In patent publication US20220296667A1, “COMPOSITION FOR A[…] TREATING NARCOLEPSY, […] RICE BRAN POWDER AS ACTIVE INGREDIENT, AND PREPARATION METHOD THEREFOR” (RAPHAGEN, priority 2019, published 2022):

Columns and labels:
[1] = background art; cited from earlier work
zebrafish [2] = assay: Dark/light transition of zebrafish; format: in vivo; conditions: dark and light conditions at 10-minute intervals, distance moved at 2-minute intervals; FIGS. 3, 4, 5
Procedure: The dark/light transition of zebrafish treated with the fermented rice bran powder obtained according to Example 1 was measured. Specifically, dark and light conditions were given at 10-minute intervals, and graphs for the distance moved at 2-minute intervals were measured (see FIGS. 3, 4, and 5).

zebrafish [3] = conditions: zebrafish whose brain is damaged by PTZ or the like; stated as known; cited from earlier work

Structure (SMILES): O=C(O)CCCO [GHB, Gamma hydroxybutyrate]
- half-life (in words) [1]: short half-life

Structure (SMILES): C1CCc2nnnn2CC1 [PTZ, Pentylenetetrazol]
- behavior pattern to dark/light (distance moved) (zebrafish [2]): moved regardless of the light/dark division
- color recognition (zebrafish [3]): color cannot be normally recognized

Structure (SMILES): NC(=O)C[S+]([O-])C(c1ccccc1)c1ccccc1 (stereo not shown) [modafinil, Modafinil]
- half-life [1]: ≥ 15 h
